In the NIST ThermoML archive (doi:10.1016/j.jct.2017.11.017):
± gives the expanded uncertainty stated by the source.

Experiment: activity coefficient (dimensionless); of the first substance listed, at infinite dilution; xn = mol fraction of the nth substance listed
Settings: 101.33 kPa, Liquid, Chromatography, x1 = 0

Structure (SMILES) | activity coefficient (318.15 K) | activity coefficient (328.15 K) | activity coefficient (338.15 K) | activity coefficient (348.15 K) | activity coefficient (358.15 K) | activity coefficient (368.15 K)
CCC(=O)CC [pentan-3-one] + C[N+]1(CCCO)CCOCC1.N#C[N-]C#N | 8.09 ± 0.55 | 8.2 ± 0.56 | 8.38 ± 0.57 | 8.52 ± 0.58 | 8.61 ± 0.59 | 8.75 ± 0.6
CCC(=O)CC [pentan-3-one] + C[n+]1ccn(CCCO)c1.N#CN=C=[N-] | 5.1 ± 0.35 | 5.29 ± 0.36 | 5.54 ± 0.38 | 5.71 ± 0.39 | 5.95 ± 0.41 | 6.11 ± 0.42
CCCO [propan-1-ol] + C[N+]1(CCCO)CCOCC1.N#C[N-]C#N | 2.63 ± 0.18 | 2.58 ± 0.18 | 2.55 ± 0.17 | 2.52 ± 0.17 | 2.49 ± 0.17 | 2.46 ± 0.17
CCCO [propan-1-ol] + C[n+]1ccn(CCCO)c1.N#CN=C=[N-] | 1.77 ± 0.12 | 1.76 ± 0.12 | 1.76 ± 0.12 | 1.76 ± 0.12 | 1.77 ± 0.12 | 1.78 ± 0.12
CC(C)O [propan-2-ol] + C[N+]1(CCCO)CCOCC1.N#C[N-]C#N | 2.85 ± 0.19 | 2.78 ± 0.19 | 2.72 ± 0.19 | 2.67 ± 0.18 | 2.64 ± 0.18 | 2.6 ± 0.18
CC(C)O [propan-2-ol] + C[n+]1ccn(CCCO)c1.N#CN=C=[N-] | 1.92 ± 0.13 | 1.92 ± 0.13 | 1.92 ± 0.13 | 1.91 ± 0.13 | 1.91 ± 0.13 | 1.92 ± 0.13
CCCc1ccccc1 [propylbenzene] + C[N+]1(CCCO)CCOCC1.N#C[N-]C#N | 54.1 ± 3.7 | 53.2 ± 3.6 | 52.4 ± 3.6 | 51.5 ± 3.5 | 51 ± 3.5 | 50.2 ± 3.4
CCCc1ccccc1 [propylbenzene] + C[n+]1ccn(CCCO)c1.N#CN=C=[N-] | 26.8 ± 1.8 | 27.3 ± 1.9 | 27.6 ± 1.9 | 27.9 ± 1.9 | 28.2 ± 1.9 | 28.4 ± 1.9
c1ccncc1 [pyridine] + C[N+]1(CCCO)CCOCC1.N#C[N-]C#N | 1.71 ± 0.11 | 1.8 ± 0.12 | 1.89 ± 0.13 | 1.97 ± 0.13 | 2.06 ± 0.14 | 2.15 ± 0.15
c1ccncc1 [pyridine] + C[n+]1ccn(CCCO)c1.N#CN=C=[N-] | 1.33 ± 0.09 | 1.41 ± 0.09 | 1.5 ± 0.1 | 1.58 ± 0.1 | 1.67 ± 0.11 | 1.75 ± 0.12
C=Cc1ccccc1 [styrene] + C[N+]1(CCCO)CCOCC1.N#C[N-]C#N | 9.96 ± 0.68 | 10.3 ± 0.7 | 10.5 ± 0.7 | 10.8 ± 0.7 | 11 ± 0.8 | 11.3 ± 0.8
C=Cc1ccccc1 [styrene] + C[n+]1ccn(CCCO)c1.N#CN=C=[N-] | 5.97 ± 0.41 | 6.25 ± 0.43 | 6.57 ± 0.45 | 6.82 ± 0.46 | 7.14 ± 0.49 | 7.39 ± 0.5
C1CCOC1 [tetrahydrofuran] + C[N+]1(CCCO)CCOCC1.N#C[N-]C#N | 4.57 ± 0.31 | 4.61 ± 0.31 | 4.67 ± 0.32 | 4.72 ± 0.32 | 4.78 ± 0.33 | 4.83 ± 0.33
C1CCOC1 [tetrahydrofuran] + C[n+]1ccn(CCCO)c1.N#CN=C=[N-] | 3.07 ± 0.21 | 3.19 ± 0.22 | 3.33 ± 0.23 | 3.44 ± 0.23 | 3.57 ± 0.24 | 3.67 ± 0.25
c1ccsc1 [thiophene] + C[N+]1(CCCO)CCOCC1.N#C[N-]C#N | 3.23 ± 0.22 | 3.37 ± 0.23 | 3.51 ± 0.24 | 3.64 ± 0.25 | 3.77 ± 0.26 | 3.9 ± 0.27
c1ccsc1 [thiophene] + C[n+]1ccn(CCCO)c1.N#CN=C=[N-] | 2.44 ± 0.17 | 2.57 ± 0.17 | 2.69 ± 0.18 | 2.82 ± 0.19 | 2.95 ± 0.2 | 3.07 ± 0.21
Cc1ccccc1 [toluene] + C[N+]1(CCCO)CCOCC1.N#C[N-]C#N | 13 ± 0.9 | 13.1 ± 0.9 | 13.3 ± 0.9 | 13.4 ± 0.9 | 13.6 ± 0.9 | 13.7 ± 0.9
Cc1ccccc1 [toluene] + C[n+]1ccn(CCCO)c1.N#CN=C=[N-] | 7.75 ± 0.53 | 8 ± 0.55 | 8.27 ± 0.56 | 8.51 ± 0.58 | 8.84 ± 0.6 | 9.09 ± 0.62
C=COC(C)=O [vinyl acetate] + C[N+]1(CCCO)CCOCC1.N#C[N-]C#N | 6.62 ± 0.45 | 6.72 ± 0.46 | 6.81 ± 0.46 | 6.89 ± 0.47 | 6.99 ± 0.48 | 7.08 ± 0.48
C=COC(C)=O [vinyl acetate] + C[n+]1ccn(CCCO)c1.N#CN=C=[N-] | 4.73 ± 0.32 | 4.92 ± 0.34 | 5.12 ± 0.35 | 5.3 ± 0.36 | 5.49 ± 0.37 | 5.68 ± 0.39
O [water] + C[N+]1(CCCO)CCOCC1.N#C[N-]C#N | 0.364 ± 0.033 | 0.373 ± 0.033 | 0.384 ± 0.033 | 0.395 ± 0.034 | 0.404 ± 0.034 | 0.414 ± 0.034
O [water] + C[n+]1ccn(CCCO)c1.N#CN=C=[N-] | 0.35 ± 0.03 | 0.36 ± 0.03 | 0.37 ± 0.03 | 0.38 ± 0.03 | 0.4 ± 0.03 | 0.41 ± 0.03
